Data taken from paper PMC12040169 (PLOS Biology, 2025).

Assay: in vitro
Settings: human, hela cells, % viability

Structure (SMILES) | viability at 28.5 h, 10 µM [%]
Cc1cc(NC(=O)CN2CCN(Cc3ccccc3C#N)CC2)no1 [CBK305644] | 77.3
COc1cc(C(=O)ON=C(N)Cc2cccc3ccccc23)cc(OC)c1OC [CBK264611] | 95.9
O=C(Cn1cccc2cc(C3CCCNC3)nc1-2)N1CCCCCC1 (centres unmarked) [CBK285088] | 93.2
O=C(O)c1ccc(NS(=O)(=O)c2cc(F)c(Br)cc2F)cc1 [CBK034045] | 101
COc1ccc(N2C(=O)c3ccc(C(=O)OCC(=O)c4ccccc4Cl)cc3C2=O)c([N+](=O)[O-])c1 [CBK265514] | 83.7
CCS(=O)(=O)Nc1ccc(C(=O)N2CCN(c3ccccc3)CC2)cc1 [CBK304345] | 112
CCCc1cc(C(=O)OC)c(NC(=O)CC2Nc3ccccc3NC2=O)s1 (centres unmarked) [CBK269451] | 107
Cc1ccc([N+](=O)[O-])cc1S(=O)(=O)Nc1ccc(O)c(Sc2nc3ccccc3s2)c1 [CBK266936] | 97.6
CN1CCN(NC(=O)C23CCC(C)(C(=O)O2)C3(C)C)CC1 (centres unmarked) [CBK268285] | 99.1
COc1ccccc1NS(=O)(=O)c1cc(S(=O)(=O)Nc2ccccc2OC)c(C)cc1C [CBK261493] | 92
CN(C)S(=O)(=O)c1cccc(-c2cn3cccnc3n2)c1 [CBK267580] | 71.4
CCC1CCCCN1Cc1nc2c(c(=O)n(C)c(=O)n2C)n1CCOC (centres unmarked) [CBK305912] | 104
COCC(=O)N1CCC2(C/C=C/C[C@H]3COCC[C@@H]3NC(=O)CNC2=O)CC1 [CBK292158] | 95.2
C=CCN(Cc1nc(-c2ccccc2)no1)C(=O)Nc1ccc(C)cc1 [CBK269859] | 103
Cc1ccnc(NC(=O)C2CCCN(C(=O)OC(C)(C)C)C2)c1 (centres unmarked) [CBK305875] | 82.7
Nc1nc(OCc2ccncc2)cnc1-c1cnn(Cc2ccccc2)c1 [CBK145194] | 96.7
Cc1cccnc1C(c1ccccc1)N(C)C(=O)C1CCN(C(=O)NCc2ccccc2)CC1 (centres unmarked) [CBK074119] | 106
Cn1c(CN2C[C@H](O)C[C@H]2c2nc(-c3ccccc3)no2)nc2ccccc21 [CBK288834] | 78.7
COc1cccc(NC(=O)c2ccc(NC(=O)CCCC(=O)O)cc2)c1 [CBK287137] | 83.7
CC(=O)NC(Cc1c[nH]c2ccccc12)C(=O)N(C)Cc1cnn(C)c1 (centres unmarked) [CBK305274] | 84.3
O=C(NCCc1c[nH]c2ccccc12)c1ccc(-c2ccco2)nc1N1CCN(C(=O)c2ccco2)CC1 [CBK076217] | 95.4
NC(=O)c1ccccc1NC(=O)CCSc1ccc([N+](=O)[O-])cc1Cl [CBK266396] | 80.1

Structure (SMILES) | viability at 28.5 h, 10 µM [%]
CN1Cc2ccccc2CC1C(=O)N1CCc2ncc(Cl)cc2C1 (centres unmarked) [CBK282568] | 85.5
CCOC(=O)c1cnc(SCCc2ccccc2)nc1N [CBK085871] | 88.1
CN(C)c1ncc(-c2ccc(F)cc2)c(C2CCCN2C(=O)c2nccc3ccccc23)n1 (centres unmarked) [CBK286086] | 84.3
O=C(NCCn1c(-c2ccncc2)nc2ccccc21)c1ccc(F)c(F)c1 [CBK288577] | 88.9
CC(=O)N1CCC[C@H]2NC(=O)CNC(=O)C3(C/C=C/C[C@H]21)CCN(CC(C)C)CC3 [CBK292088] | 106
COc1ccc2[nH]c(Sc3c([N+](=O)[O-])nc(C)n3Cc3ccccc3)nc2c1 [CBK263235] | 80.7
CCn1c2ccccc2c2cc(CN3CCN(Cc4cccc(F)c4)CC3)ccc21 [CBK263143] | 90.5
Cc1ccc(CNC(=O)C2CC(=O)N(c3cccc(C)c3C)C2)cc1 (centres unmarked) [CBK295183] | 97.5
CN1CCC(N(C)C(=O)c2ccc3nccnc3c2)CC1 [CBK269096] | 108
CN1C2C=C(N(CCc3ccccc3)C(=O)c3ccc(Cl)cc3)CC1CC2 (centres unmarked) [CBK262604C] | 94.7
COCC1CN(S(=O)(=O)c2cnc3ccsc3c2)C1 [CBK304768] | 72.4
CC(C)Cc1ccc(S(=O)(=O)Nc2ccc(C(=O)O)cc2)cc1 [CBK297930] | 98.4
C(=C\c1nccnc1OCc1cccs1)/c1ccccc1 [CBK106883] | 112
O=C(NC1CCCc2c1cnn2Cc1ccccc1)c1ccncc1 (centres unmarked) [CBK282250] | 93.8
Cc1nn(Cc2cccnc2)c(=O)n2cccc12 [CBK283848] | 105
CC(=O)c1ccc(NC(=O)CSc2nnc(-c3ccc4ccccc4n3)s2)cc1 [CBK269205] | 97.6
O=C1CCCC[C@]2(CN(Cc3ccccc3)C[C@H]2c2ccccn2)N1 [CBK283340] | 82.6
CN(C)CC(=O)N1CCc2nc(-c3ccccc3F)sc2C1 [CBK281918] | 85.6
CC(C)NC(=O)c1sc2ccccc2c1C1CN(Cc2ccc3ncccc3c2)CCO1 (centres unmarked) [CBK285930] | 81.5
Cc1cn(CC(=O)N2CCC3(CCCNC3)C2)c(=O)[nH]c1=O (centres unmarked) [CBK153231C] | 95.9
Cc1ccc(S(=O)(=O)NCC(=O)Nc2ccc(Cl)cn2)cc1 [CBK091357] | 105
O=C(O)CSCC(=O)Nc1ccc(Cl)cn1 [CBK057543] | 86.5

Structure (SMILES) | viability at 28.5 h, 10 µM [%]
O=C(NCCCO)Nc1ccc2nc(-c3ccco3)c(-c3ccco3)nc2c1 [CBK265161] | 92.4
COc1ccc([C@@]23CC[C@@H](NC(=O)N(C)c4ccc(C)cc4)C[C@@H]2N(C)CC3)cc1OC [CBK045681T] | 89.2
Cc1nnc2ccc(N3CCN(Cc4cscn4)CC3)nn12 [CBK304910] | 101
O=C(O)c1ccc(CNCCc2ccccc2)cc1 [CBK287215] | 101
N#Cc1ccc(C(=O)N2C[C@@H]3C[C@H](C2)c2ccc(-c4cccs4)c(=O)n2C3)cc1 [CBK289180] | 86
CN1CCC(=NNC(=O)CN(c2ccc(Oc3ccccc3)cc2)S(C)(=O)=O)CC1 [CBK262338] | 93.2
Fc1ccc(SCCc2ccccn2)cc1 [CBK026491G] | 82.9
COC(=O)c1ccc(COc2nc3ccccc3nc2/C=C/c2cccc([N+](=O)[O-])c2)cc1 [CBK268776] | 112
Cc1ccccc1CN1CC[C@@H]2[C@H](C1)[C@@H](c1ccc(F)cc1)CN2C(=O)c1cccs1 [CBK285546] | 86.8
CCN(CC)C(=O)[C@@H]1CCCN(C2CCN(C(=O)c3c4ccccc4cc4ccccc34)CC2)C1 [CBK066966C] | 90.4
c1ccc(OCCOc2nccnc2-c2ccc3c(c2)OCO3)cc1 [CBK106714] | 96.1
COc1cc(S(=O)(=O)N2CCN(S(=O)(=O)c3cccc([N+](=O)[O-])c3)CC2)ccc1Cl [CBK266285] | 89.6
Cc1nc(CN2CCCC(NCc3cccc4ccccc34)C2)no1 (centres unmarked) [CBK304068] | 71.4
CC(C)(C)OC(=O)N1CCN(c2ccnc(Cl)n2)CC1 [CBK002095] | 120
COc1cccc(NC(=O)c2cnc(-c3ccccc3)c(-c3cccnc3)c2)c1OC [CBK037487] | 92.8
O=C(Cn1cnc(-c2noc(-c3cccnc3)n2)c1)Nc1ccc(Cl)cc1 [CBK287822] | 96.2
O=C(Nc1ccc(I)cc1)c1ccc(CN2CCc3ccccc3C2)cc1 [CBK262672] | 101
O=C(O)CCCC(=O)NC12CC3CC(CC(C3)C1)C2 [CBK286958] | 97.4
Cc1noc(NS(=O)(=O)c2ccc(NC(=O)COc3ccc(Cl)cc3Cl)cc2)c1C [CBK262142] | 89.3
Cn1cc(-c2nccnc2OC(c2ccccc2)c2ccccc2)cn1 [CBK107073] | 103
COc1ccc(CCNC(=O)CN2CCCC2Cn2cncn2)cc1 (centres unmarked) [CBK304567] | 115
CCOC(=O)CC(C)NS(=O)(=O)c1ccc(OC(F)(F)F)cc1 (centres unmarked) [CBK044954] | 104

Structure (SMILES) | viability at 28.5 h, 10 µM [%]
O=S(=O)(O)c1cccc2cccc(I)c12 [CBK301197N] | 89.1
CC1(C)Cc2c(sc(NC(=O)Cc3ccccc3)c2C(=O)O)CO1 [CBK264354] | 110
C=CCN(CC=C)Cc1c(C)nc2ccc(CC)cc2c1O [CBK264998] | 92.6
O=C(Nc1ccncc1)c1cc2cc(F)ccc2[nH]1 [CBK107346] | 103
O=C(O)c1cc(C(=O)O)c(-c2ccccc2)c(C(=O)O)c1 [CBK261101] | 93.7
OCCN1CCN(c2nc(NCC3CCCO3)c3ccccc3n2)CC1 (centres unmarked) [CBK266659C] | 99.1
O=C(O)c1cc(NC/C=C/c2ccccc2)ccc1N1CCOCC1 [CBK269806] | 106
CCN(CC)S(=O)(=O)c1ccc(CNC(=O)Cc2ccc(Cl)cc2)cc1 [CBK306188] | 105
O=C(C1=C(O)C(=O)N(CCN2CCOCC2)C1c1cccnc1)c1ccco1 (centres unmarked) [CBK264570] | 97.4
CC(C)(C)c1ccc(OCC(=O)Nc2ccc(OCC(=O)O)cc2)cc1 [CBK287013] | 113
CS(=O)(=O)Nc1nn(-c2ccc(NC(=O)c3ccno3)cc2)c2ccccc12 [CBK048591] | 99.5
CS(=O)(=O)NC[C@H]1O[C@@H](Cc2nc(-c3ccc(F)cc3)no2)[C@H](O)[C@@H]1O [CBK288906] | 95.3
CC(C)c1ccc(NC(=O)CSc2nnc(CN3CCOCC3)n2C)cc1 [CBK268235] | 93.7
CCC(Oc1ccc(C)cc1)C(=O)Nc1ccccc1C(=O)N1CCOCC1 (centres unmarked) [CBK270132] | 85.6
O=C(NCCc1c[nH]c2ccccc12)c1cc2c(ccc3ccccc32)oc1=O [CBK264550] | 91.5
Cc1nn(C)c(Oc2ccc3c(c2)CCCC3)c1[N+](=O)[O-] [CBK000273] | 91.2
COc1cccc(C2(NC(=O)CCn3nc(C)cc3C)CCCC2)c1 [CBK283749] | 90.7
Cc1cc(C)c(S(=O)(=O)NCCN2CCN(S(=O)(=O)c3c(C)cc(C)cc3C)CC2)c(C)c1 [CBK265842] | 96
CN1CCC(N2CCN(C(=O)c3cncc(-c4[nH]nnc4-c4ccccc4)c3)CC2)CC1 [CBK160327] | 98.3
O=C(O)c1ccccc1-n1c(=O)c2cc3c(=O)n(-c4ccccc4C(=O)O)c(=O)c3cc2c1=O [CBK261097] | 87.5
